Legend:
Conditions in all cases: inhibition profile
[1] = biological target: T1, human recombinant histamine H2 receptor (Homo sapiens, UniProt P25021); assay: Histamine H2 radioligand binding ([125I]Aminopotentidine)
T1 construct: expressed in transfected cells; host or cells: CHO-K1 cells
Summary of the method: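 This radioligand binding assay measured displacement of [125I]Aminopotentidine from recombinant human histamine H2 receptors. Compounds were dissolved in 1% DMSO vehicle. Specific binding was calculated by subtracting non-specific binding, defined using 3 μM Tiotidine, and activity was reported as percentage inhibition of that specific binding.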

[2] = biological target: T2, human recombinant adrenergic α2A receptor (Homo sapiens, UniProt P08913); assay: Adrenergic α2A radioligand binding ([3H]MK-912)
T2 construct: expressed in transfected cells; host or cells: insect Sf9 cells
T2 sequence (P08913 1-465): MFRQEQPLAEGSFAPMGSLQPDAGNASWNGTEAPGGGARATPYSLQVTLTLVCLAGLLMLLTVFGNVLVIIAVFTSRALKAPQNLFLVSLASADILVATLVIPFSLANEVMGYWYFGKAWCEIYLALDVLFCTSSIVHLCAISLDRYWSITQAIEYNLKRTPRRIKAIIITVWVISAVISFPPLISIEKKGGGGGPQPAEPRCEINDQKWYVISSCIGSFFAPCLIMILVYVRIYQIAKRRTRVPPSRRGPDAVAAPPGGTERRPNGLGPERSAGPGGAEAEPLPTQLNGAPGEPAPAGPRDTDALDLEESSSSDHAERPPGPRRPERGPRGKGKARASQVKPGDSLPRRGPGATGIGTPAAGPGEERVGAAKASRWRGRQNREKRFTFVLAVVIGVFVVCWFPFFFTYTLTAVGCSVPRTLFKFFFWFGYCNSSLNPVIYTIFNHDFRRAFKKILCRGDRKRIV
Summary of the method: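 Membranes from Sf9 cells expressing the receptor were incubated with 1 nM [3H]MK-912 for 60 minutes at 25° C in 50 mM Tris-HCl pH 7.4, 12.5 mM MgCl2, 2 mM EDTA. 10 μM WB-4101 defined non-specific binding. Values are percent inhibition of specific bound radioactivity after filtration.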

[3] = biological target: T3, human recombinant serotonin (5-Hydroxytryptamine) 5-HT2C receptor (Homo sapiens, UniProt P28335); assay: Serotonin 5-HT2C radioligand binding ([3H]Mesulergine)
T3 construct: expressed in transfected cells; host or cells: CHO-K1 cells
T3 sequence (P28335 33-458): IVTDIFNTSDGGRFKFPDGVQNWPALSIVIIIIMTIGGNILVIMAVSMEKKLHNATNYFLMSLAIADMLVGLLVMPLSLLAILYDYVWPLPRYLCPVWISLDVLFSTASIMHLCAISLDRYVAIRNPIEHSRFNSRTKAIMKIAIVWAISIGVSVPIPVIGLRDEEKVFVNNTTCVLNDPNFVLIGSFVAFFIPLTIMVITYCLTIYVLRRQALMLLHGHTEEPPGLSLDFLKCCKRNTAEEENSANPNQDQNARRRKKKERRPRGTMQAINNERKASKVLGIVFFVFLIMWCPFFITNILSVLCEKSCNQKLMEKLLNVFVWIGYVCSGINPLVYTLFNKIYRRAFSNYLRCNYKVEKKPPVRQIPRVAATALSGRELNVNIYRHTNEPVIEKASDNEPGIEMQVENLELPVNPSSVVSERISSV
Protocol: Compounds of the invention were incubated with 1 nM [^3H]Mesulergine for 60 minutes at 25° C. Non-specific binding was estimated in the presence of 1 μM Mianserin. Receptor proteins were filtered and washed, the filters were then counted to determine [^3H]Mesulergine specifically bound. […] Biochemical assay results are presented as the percent inhibition of specific binding in Table 6.

[4] = biological target: T4, Serotonin (5-Hydroxytryptamine) 5-HT7 (Homo sapiens, UniProt P34969); assay: Serotonin 5-HT7 radioligand binding ([3H]LSD)
T4 construct: expressed in transfected cells; host or cells: CHO cells
T4 sequence (P34969 whole entry): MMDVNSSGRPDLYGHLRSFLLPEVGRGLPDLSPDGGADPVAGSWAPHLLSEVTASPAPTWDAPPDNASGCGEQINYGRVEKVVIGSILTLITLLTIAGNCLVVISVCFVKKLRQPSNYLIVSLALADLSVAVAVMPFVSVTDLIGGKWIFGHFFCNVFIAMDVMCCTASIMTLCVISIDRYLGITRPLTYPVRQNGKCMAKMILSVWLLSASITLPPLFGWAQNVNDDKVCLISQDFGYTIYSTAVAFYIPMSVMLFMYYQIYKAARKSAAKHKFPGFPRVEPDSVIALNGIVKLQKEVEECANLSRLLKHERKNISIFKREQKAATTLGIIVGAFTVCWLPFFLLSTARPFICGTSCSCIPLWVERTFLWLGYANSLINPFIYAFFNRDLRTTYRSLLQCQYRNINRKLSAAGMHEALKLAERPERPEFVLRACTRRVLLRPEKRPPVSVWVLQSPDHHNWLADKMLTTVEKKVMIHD
Protocol: Lysergic acid diethylamide (LSD) for 2 hours at 25° C. […] Receptor proteins were filtered and washed, the filters were then counted to determine [^3H]LSD specifically bound. […] Biochemical assay results are presented as the percent inhibition of specific binding in Table 6.

T1 sequence (P25021 whole entry): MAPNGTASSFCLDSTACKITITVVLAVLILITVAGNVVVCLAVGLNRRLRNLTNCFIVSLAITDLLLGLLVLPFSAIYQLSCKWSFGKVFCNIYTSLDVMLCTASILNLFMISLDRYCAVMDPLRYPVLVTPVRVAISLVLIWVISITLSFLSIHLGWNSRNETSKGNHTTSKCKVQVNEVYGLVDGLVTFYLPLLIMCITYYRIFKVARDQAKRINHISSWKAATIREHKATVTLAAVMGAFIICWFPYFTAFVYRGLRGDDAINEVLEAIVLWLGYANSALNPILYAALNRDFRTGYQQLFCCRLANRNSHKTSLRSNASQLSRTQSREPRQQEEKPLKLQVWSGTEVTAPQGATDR

SMILES: Cc1ccc2c(c1)c1c(n2CCc2ccc(C)nc2)CC[N+](C)([O-])C1 (stereo not shown) [Example 93, 2,8-dimethyl-5-(2-(6-methylpyridin-3-yl)ethyl)-2,3,4,5-tetrahydro-1H-pyrido[4,3-b]indole 2-oxide]
- Hist. H2 [1]: 19
- Adren. alpha2A [2]: 1
- Ser. 5-HT2C [3]: 9
- Ser. 5-HT7 [4]: 35
